Values joined by “and” are separate entries in the source; they are usually repeats but may differ in a detail not shown here. Equal entries are not always repeated. Inconclusive results and toxic doses are left out. Rule as the data show it: active = T/C of 150% or more; inactive = T/C below 125%.
Test system: L1210 leukemia ip in BDF1 mice, survival T/C
Test: NCI In Vivo Anticancer Drug Screen. Data for tumor model L1210 Leukemia (intraperitoneal) in B6D2F1 (BDF1) mice
Conditions: endpoint: mean survival time, higher = longer survival
Outline: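 Tumor was transplanted into mice, which were then dosed with test compound or vehicle alone. Survival was recorded for each group, and the treated figure was expressed relative to the control figure.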

[1] = dose: 75.0 mg/kg/injection, schedule: Q01DX001 (ip), vehicle: saline
[2] = dose: 150.0 mg/kg/injection, schedule: Q01DX001 (ip), vehicle: saline
[3] = dose: 300.0 mg/kg/injection, schedule: Q01DX001 (ip), vehicle: saline
[4] = dose: 100.0 mg/kg/injection, schedule: Q01DX001 (ip), vehicle: saline with Tween-80
[5] = dose: 100.0 mg/kg/injection, schedule: Q01DX009 (ip), vehicle: saline with Tween-80
[6] = dose: 200.0 mg/kg/injection, schedule: Q01DX001 (ip), vehicle: saline with Tween-80
[7] = dose: 200.0 mg/kg/injection, schedule: Q01DX009 (ip), vehicle: saline with Tween-80
[8] = dose: 400.0 mg/kg/injection, schedule: Q01DX001 (ip), vehicle: saline with Tween-80
[9] = dose: 100.0 mg/kg/injection, schedule: Q04DX002 (ip), vehicle: Klucel (hydroxypropylcellulose) (HPC)
[10] = dose: 200.0 mg/kg/injection, schedule: Q04DX002 (ip), vehicle: Klucel (hydroxypropylcellulose) (HPC)
[11] = dose: 400.0 mg/kg/injection, schedule: Q04DX002 (ip), vehicle: Klucel (hydroxypropylcellulose) (HPC)
[12] = dose: 12.5 mg/kg/injection, schedule: Q01DX009 (ip), vehicle: Klucel (hydroxypropylcellulose) (HPC)
[13] = dose: 25.0 mg/kg/injection, schedule: Q01DX009 (ip), vehicle: Klucel (hydroxypropylcellulose) (HPC)
[14] = dose: 50.0 mg/kg/injection, schedule: Q01DX009 (ip), vehicle: Klucel (hydroxypropylcellulose) (HPC)
[15] = dose: 100.0 mg/kg/injection, schedule: Q01DX001 (ip), vehicle: carboxymethylcellulose (CMC)
[16] = dose: 200.0 mg/kg/injection, schedule: Q01DX001 (ip), vehicle: carboxymethylcellulose (CMC)
[17] = dose: 400.0 mg/kg/injection, schedule: Q01DX001 (ip), vehicle: carboxymethylcellulose (CMC)

Measured: T/C

NNc1ncnc2nc[nH]c12
inactive: dose: 12.0 mg/kg/injection, schedule: Q01DX015 (ip), vehicle: saline 93 % of control | dose: 25.0 mg/kg/injection, schedule: Q01DX015 (ip), vehicle: saline 101 % of control | dose: 50.0 mg/kg/injection, schedule: Q01DX015 (ip), vehicle: saline 104 % of control | [1] 105 % of control | dose: 100.0 mg/kg/injection, schedule: Q01DX015 (ip), vehicle: saline 116 % of control | [2] 102 % of control | [3] 114 % of control

O=S(=O)(Nc1ccc(NS(=O)(=O)c2ccccc2)cc1)c1ccccc1
inactive: dose: 100.0 mg/kg/injection, schedule: Q01DX009 (ip), vehicle: saline sonified 97 % of control | dose: 100.0 mg/kg/injection, schedule: Q04DX003 (ip), vehicle: Klucel (hydroxypropylcellulose) (HPC) 93 % of control | dose: 200.0 mg/kg/injection, schedule: Q01DX009 (ip), vehicle: saline sonified 104 % of control | dose: 200.0 mg/kg/injection, schedule: Q04DX003 (ip), vehicle: Klucel (hydroxypropylcellulose) (HPC) 98 % of control | dose: 400.0 mg/kg/injection, schedule: Q01DX009 (ip), vehicle: saline sonified 98 % of control | dose: 400.0 mg/kg/injection, schedule: Q04DX003 (ip), vehicle: Klucel (hydroxypropylcellulose) (HPC) 90 % of control

COc1ccc2c3c1OC1C(C)(O)C(O)CC4C(C2)N(C)CCC341 (stereo not given)
inactive: [1] 98 % of control | [2] 104 % of control | [3] 98 % of control

COc1cc([N+](=O)[O-])ccc1NC(=O)Nc1ccc(S(N)(=O)=O)cc1
inactive: [4] 98 % of control | [5] 103 % of control and 107 % of control | dose: 100.0 mg/kg/injection, schedule: Q04DX002 (ip), vehicle: saline with Tween-80 100 % of control and 102 % of control | [6] 90 % of control | [7] 92 % of control and 103 % of control | dose: 200.0 mg/kg/injection, schedule: Q04DX002 (ip), vehicle: saline with Tween-80 99 % of control and 86 % of control | [8] 91 % of control | dose: 400.0 mg/kg/injection, schedule: Q01DX009 (ip), vehicle: saline with Tween-80 94 % of control and 96 % of control | dose: 400.0 mg/kg/injection, schedule: Q04DX002 (ip), vehicle: saline with Tween-80 94 % of control

C=CCCCCCCCCCNc1cc2c3c(c1)CCCN3CCC2
inactive: dose: 0.19 mg/kg/injection, schedule: Q01DX003 (ip), vehicle: saline 90 % of control | dose: 0.19 mg/kg/injection, schedule: Q01DX009 (ip), vehicle: saline 108 % of control | dose: 0.39 mg/kg/injection, schedule: Q01DX003 (ip), vehicle: saline 98 % of control | dose: 0.39 mg/kg/injection, schedule: Q01DX009 (ip), vehicle: saline 98 % of control | dose: 0.78 mg/kg/injection, schedule: Q01DX003 (ip), vehicle: saline 101 % of control

CCOC(=O)c1ccc(NS(=O)(=O)c2ccc(NC(C)=O)cc2)cc1
inactive: [9] 88 % of control | [10] 94 % of control | [11] 103 % of control

COc1cc2c(cc1OC)CN1CCc3cc(OC)c(OC)cc3C1C2 (stereo not given)
inactive: dose: 50.0 mg/kg/injection, schedule: Q01DX009 (ip), vehicle: saline with Tween-80 93 % of control | [1] 100 % of control | [5] 93 % of control | [2] 100 % of control | [7] 93 % of control | [3] 101 % of control

Nc1ncc(-c2ccc(Br)cc2)s1
inactive: dose: 12.5 mg/kg/injection, schedule: Q01DX005 (ip), vehicle: Klucel (hydroxypropylcellulose) (HPC) 100 % of control | [12] 105 % of control | dose: 25.0 mg/kg/injection, schedule: Q01DX005 (ip), vehicle: Klucel (hydroxypropylcellulose) (HPC) 107 % of control | [13] 97 % of control | dose: 50.0 mg/kg/injection, schedule: Q01DX005 (ip), vehicle: Klucel (hydroxypropylcellulose) (HPC) 91 % of control | [14] 97 % of control | dose: 75.0 mg/kg/injection, schedule: Q01DX009 (ip), vehicle: Klucel (hydroxypropylcellulose) (HPC) 97 % of control | [9] 102 % of control | dose: 115.0 mg/kg/injection, schedule: Q01DX009 (ip), vehicle: Klucel (hydroxypropylcellulose) (HPC) 92 % of control | dose: 170.0 mg/kg/injection, schedule: Q01DX009 (ip), vehicle: Klucel (hydroxypropylcellulose) (HPC) 116 % of control | [10] 102 % of control | [11] 88 % of control

CC(=O)OC1CC(n2cc(C)c(=O)[nH]c2=O)OC1CO (stereo not given)
inactive: dose: 100.0 mg/kg/injection, schedule: Q01DX005 (ip), vehicle: saline 112 % of control | dose: 200.0 mg/kg/injection, schedule: Q01DX005 (ip), vehicle: saline 109 % of control

O=C(O)CCCc1nc2ccccc2c(=O)[nH]1
inactive: dose: 44.0 mg/kg/injection, schedule: Q01DX001 (ip), vehicle: carboxymethylcellulose (CMC) 101 % of control and 103 % of control | dose: 50.0 mg/kg/injection, schedule: Q01DX001 (ip), vehicle: carboxymethylcellulose (CMC) 108 % of control | dose: 66.0 mg/kg/injection, schedule: Q01DX001 (ip), vehicle: carboxymethylcellulose (CMC) 98 % of control and 103 % of control | [15] 98 % of control and 100 % of control | dose: 150.0 mg/kg/injection, schedule: Q01DX001 (ip), vehicle: carboxymethylcellulose (CMC) 93 % of control and 100 % of control | [16] 106 % of control | [17] 101 % of control

CNC(=O)OCc1c(COC(=O)NC)c(-c2ccc(Cl)c(Cl)c2)n2c1CCC2
inactive: [12] 106 % of control | [13] 109 % of control | [14] 124 % of control

CC(=O)N(N=O)c1ccc(N(N=O)C(C)=O)cc1
inactive: dose: 5.0 mg/kg/injection, schedule: Q01DX001 (ip), vehicle: saline 106 % of control | dose: 10.0 mg/kg/injection, schedule: Q01DX001 (ip), vehicle: saline 97 % of control | dose: 20.0 mg/kg/injection, schedule: Q01DX001 (ip), vehicle: saline 112 % of control

c1ccc(-c2ccc(-c3cnc(-c4ccccc4)[nH]3)cc2)cc1
inactive: [4] 95 % of control | [6] 92 % of control | [8] 92 % of control

Cc1ccc(S(=O)(=O)Nc2ccc(OS(=O)(=O)c3ccc(C)cc3)cc2)cc1
inactive: [15] 108 % of control | [16] 100 % of control | [17] 100 % of control

COC(=O)c1cc(NC(=O)Nc2cc([N+](=O)[O-])ccc2C)cc(C(=O)OC)c1
inactive: dose: 100.0 mg/kg/injection, schedule: Q04DX002 (ip), vehicle: saline 120 % of control | dose: 200.0 mg/kg/injection, schedule: Q04DX002 (ip), vehicle: saline 103 % of control | dose: 400.0 mg/kg/injection, schedule: Q04DX002 (ip), vehicle: saline 116 % of control

From PubChem BioAssay AID248 (DTP/NCI, 2004)
